The subject of one test is primary murine HSCs. Put plainly: Immunocytochemistry (Acta2) of HSC activation into myofibroblasts. Format: cell-based, mouse. To be noted: day 6, JQ1 500 nM. How it is done: Primary murine HSCs were seeded onto chamber slides (Nunc). […] Media was aspirated, cells were washed twice with PBS (Gibco) and fixed in 10% buffered formalin at room temperature for 15 minutes. Fixative was removed and cells were washed three times with PBS. The slides were then blocked with 3% BSA and incubated with rabbit anti-ACTA2 antibody (at 1:100 dilution; Abcam) overnight at 4° C. After washing, the slides were incubated for 1 hour with Alexa Fluor546-labeled donkey anti-rabbit IgG antibody (at 1:200 dilution; Invitrogen). Finally, the slides were analyzed for fluorescence using an all-in-one type fluorescent microscope (BioZero BZ-9000; Keyence, Osaka, Japan). Nuclear counterstaining was performed using DAPI (Vector).

The test system of the next test is primary HSCs. Put plainly: Cell viability assay (CellTiter Glo), primary HSCs. Format: cell-based, mouse. Conditions: dose-dependent manner. On the procedure:
Primary HSCs or LX-2 cells were seeded onto 96-well tissue culture plates.
(Cellular ATP, detected with luciferase, serves as a proxy for viable cell number.)

Consider one compound from US20180325914A1, “INCREASING STORAGE OF VITAMIN A, VITAMIN D AND/OR LIPIDS” (Salk Institute for Biological Studies, priority 2014, published 2018).

Turning to `Cc1sc2c(c1C)C(c1ccc(Cl)cc1)=N[C@@H](CC(=O)OC(C)(C)C)c1nnc(C)n1-2` [JQ1, (S)-tert-butyl 2-(4-(4-chlorophenyl)-2,3,9-trimethyl-6H-thieno[3,2-f][1,2,4]triazolo[4,3-a][1,4]diazepin-6-yl)acetate], the “HSCs transdifferentiation into myofibroblasts, phenotypically (morphology, Acta2 distribution)” value with primary murine HSCs is “dramatically arrested”. For the same compound, the “anti-proliferative activity against activated HSCs” value with primary HSCs is on record as “significant anti-proliferative activity”.
